Laboratory results published in patent US20140243374A1, “Novel Sulfonamides” (The Brigham and Women's Hospital, Inc., priority 2011, published 2014).
“And” between values parts separate entries of the source, which are not always exact repeats. Equal values may be shown once.

Assays:
[1] = biological target: T1, γ-secretase (cleavage of Notch) (Homo sapiens, UniProt P49768); assay: Notch cellular assay (luciferase reporter U2OS cells); assay type: cell-based; conditions: for IC50: U2OS luciferase reporter cells; for Notch Luc/Aβ42: ratio Notch luciferase IC50 to Aβ42 IC50
T1 construct: endogenous in cells; host or cells: U2OS luciferase reporter cells with Tet-on Notch
Procedure: This assay was used to determine if the compounds of interest inhibit the cleavage of Notch by γ-secretase in cells. A U2OS cell line in which the luciferase expression is adjusted by active Notch was used in this assay Notch expression is adjusted using Tet-on promoter. Luciferase reporter U2OS cells are plated at 1000 cells/well in 96 well plates in DMEM containing 100 μg/mL hygromycin, 15 μg/mL blasticidin and 1 μg/mL Tetracycline. Compounds were added 24 h after plating and the cells are lysed 6 days after adding compounds. Luciferase expression was performed using Steady-Glo Luciferase Assay System (Promega).

[2] = biological target: T2, γ-secretase (Notch cleavage activity) (Homo sapiens, UniProt P49768); assay: Cleaved Notch1 Sandwich ELISA (SUP-T1 cell line); assay type: cell-based; conditions: for IC50: SUP-T1 cells, 16 h; for Notch Elisa/Aβ42: ratio Notch Elisa IC50 to Aβ42 IC50
T2 construct: endogenous in cells; host or cells: SUP-T1 cells
In short: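 SUP-T1 cells endogenously express a truncated Notch fragment that serves as γ-secretase substrate. Cells at 1.0×10^6 cells/mL in RPMI-1640 with 10% FBS were treated 16 h with serially diluted compounds in DMSO. Cleaved Notch intracellular domain was quantified by sandwich ELISA on equal protein amounts.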

[3] = biological target: T3, γ-secretase (cleavage of APP, Aβ42) (Homo sapiens, UniProt P49768); assay: Aβ (1-42) cellular assay (Aβ ELISA, HEK AP-GL-T1 6 cells); assay type: cell-based; conditions: for IC50: cellular Aβ42 ELISA, 24 h compound treatment; for inhibition at 1 µM: at 1 μM (concentration in brackets)
T3 construct: endogenous in cells; host or cells: HEK AP-GL-T16 luciferase reporter cells (tetracycline-induced APP substrate)
In short: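 HEK AP-GL-T1 6 cells, with APP processing induced by tetracycline at compound addition 24 h post-plating. After 24 h of treatment, Aβ42 in conditioned medium (protease inhibitors added, frozen) was quantified by fluorometric sandwich ELISA (ex 460/em 560 nm) against an Aβ peptide standard curve.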

IC50 [1] | Notch Luc/Aβ42 [1] | IC50 [2] | Notch Elisa/Aβ42 [2] | melting point | IC50 [3] | inhibition at 1 µM ([3]; read-out: Aβ42 % Inh) | inhibition at 30 µM ([3]; at 30 μM (concentration in brackets), read-out: Aβ42 % Inh) | SMILES
5000 nM and 4400 nM and 4300 nM | 585 | 350 nM | 45 | 180 to 182 °C | 7 nM and 12.7 nM and 3.8 nM |  |  | CC1CCCCC1N(Cc1ccc(C(=O)O)cc1)S(=O)(=O)c1ccc(Cl)cc1 (stereo not shown) [Example 3, 4-((4-Chloro-N-(2-methylcyclohexyl)phenylsulfonamido)methyl)benzoic acid]
2300 nM | 1586 | 160 nM | 110 | 95 to 97 °C | 1.1 nM and 1.8 nM |  |  | CC1CCCCC1N(Cc1ccc(C(=O)N[C@@H](C)CO)cc1)S(=O)(=O)c1ccc(Cl)cc1 (stereo partly drawn) [Example 5, 4-((4-Chloro-N-(2-methylcyclohexyl)phenylsulfonamido)methyl)-N—((S)-1-hydroxypropan-2-yl)benzamide]
990 nM | 1192 | 130 nM | 157 | 105 to 107 °C | 0.83 nM |  |  | CC1CCCCC1N(Cc1ccc(C(=O)NCCO)cc1)S(=O)(=O)c1ccc(Cl)cc1 (stereo not shown) [Example 6, 4-((4-Chloro-N-(2-methylcyclohexyl)phenylsulfonamido)methyl)-N-(2-hydroxyethyl)benzamide]
20000 nM | 715 |  |  | 147 to 149 °C | 28 nM |  |  | CC[C@@H](C1CCCCC1)N(Cc1ccc(C(=O)O)cc1)S(=O)(=O)c1ccc(Cl)cc1 [Example 15, (S)-4-((4-Chloro-N-(1-cyclohexylpropyl)phenylsulfonamido)methyl)benzoic acid]
40000 nM and 100000 nM | 1400 |  |  | 67 to 69 °C | 50 nM |  |  | CC[C@@H](C1CCCC1)N(Cc1ccc(C(=O)O)cc1)S(=O)(=O)c1ccc(Cl)cc1 [Example 20, (S)-4-((4-Chloro-N-(1-cyclopentylpropyl)phenylsulfonamido)methyl)benzoic acid]
 |  |  |  | 218 to 219 °C |  | 15% |  | O=C(O)c1ccc(CN([C@H]2CCCC[C@@H]2O)S(=O)(=O)c2ccc(Cl)cc2)cc1 [Example 30, 4-((4-Chloro-N-((1S,2S)-2-hydroxycyclohexyl)phenylsulfonamido)methyl)benzoic acid]
 |  |  |  | 150 to 152 °C | 199 nM |  |  | COC(=O)c1ccc(CN([C@H]2CCCC[C@@H]2O)S(=O)(=O)c2ccc(Cl)cc2)cc1 [Example 31, Methyl 4-((4-chloro-N-((1S,2S)-2-hydroxycyclohexyl)phenylsulfonamido)methyl)benzoate]
4800 nM | 169 |  |  | 117 to 119 °C | 28.4 nM |  |  | CC1CCCCC1N(Cc1ccc(C(=O)O)cc1)S(=O)(=O)c1ccc(C(F)(F)F)nc1 (stereo not shown) [Example 32, 4-((N-(2-Methylcyclohexyl)-6-(trifluoromethyl)pyridine-3-sulfonamido)methyl)benzoic acid]
 |  |  |  | 131 to 132 °C |  | 56% |  | CC1CCCCC1N(Cc1ccc(C(=O)NC(C)(C)C(=O)O)cc1)S(=O)(=O)c1ccc(C(F)(F)F)nc1 (stereo not shown) [Example 33, 2-Methyl-2-(4-((N-(2-methylcyclohexyl)-6-(trifluoromethyl)pyridine-3-sulfonamido)methyl)benzamido)propanoicacid]
8090 nM | 60 |  |  | 121 to 122 °C | 135 nM |  |  | CC1CCCCC1N(Cc1ccc(C(=O)NC(C)(C)C(=O)O)cc1)S(=O)(=O)c1ccc(Cl)cc1 (stereo not shown) [Example 34, 2-(4-((4-Chloro-N-(2-methylcyclohexyl)phenylsulfonamido)methyl)benzamido)-2-methylpropanoic acid]
2540 nM |  |  |  | 116 to 117 °C | 20.9 nM |  |  | CC1CCCCC1N(Cc1ccc(C(=O)NC(C)(C)CO)cc1)S(=O)(=O)c1ccc(Cl)cc1 (stereo not shown) [Example 37, 4-((4-Chloro-N-(2-methylcyclohexyl)phenylsulfonamido)methyl)-N-(1-hydroxy-2-methylpropan-2-yl)benzamide]
 |  | 35900 nM | 243 | 135 to 137 °C | 216 nM and 47.4 nM and 180 nM |  |  | O=C(O)c1ccc(CN(C2CCCCC2)S(=O)(=O)c2ccc(Cl)cc2)cc1 [Example 45, 4-((4-chloro-N-cyclohexylphenylsulfonamido)methyl)benzoic acid]
 |  |  |  | 134 to 136 °C |  | 11% |  | O=C(O)c1ccc(CN(C2CCCCC2O)S(=O)(=O)c2ccc(Cl)cc2)c(F)c1F (stereo not shown) [Example 67, 4-((4-Chloro-N-(2-hydroxycyclohexyl)phenylsulfonamido)methyl)-2,3-difluorobenzoic acid]
 |  |  |  | 111 to 112 °C | 519 nM |  |  | O=C(O)c1ccc(CN(C2CCCCC2)S(=O)(=O)c2ccc(Cl)cc2)c(F)c1F [Example 71, 4-((4-Chloro-N-cyclohexylphenylsulfonamido)methyl)-2,3-difluorobenzoic acid]
 |  | 3540 nM | 73 | 108 to 109 °C | 48.5 nM |  |  | O=C(O)c1ccc(CN(C2CCCCC2F)S(=O)(=O)c2ccc(Cl)cc2)c(F)c1F (stereo not shown) [Example 72, 4-((4-Chloro-N-(2-fluorocyclohexyl)phenylsulfonamido)methyl)-2,3-difluorobenzoic acid]
 |  | 1020 nM | 268 | 126 to 128 °C | 4.24 nM and 3.36 nM |  |  | C[C@H](CO)NC(=O)c1ccc(CN(C2CCCCC2F)S(=O)(=O)c2ccc(Cl)cc2)c(F)c1F (stereo partly drawn) [Example 77, 4-((4-Chloro-N-(2-fluorocyclohexyl)phenylsulfonamido)methyl)-2,3-difluoro-N—((R)-1-hydroxypropan-2-yl)benzamide]
 |  |  |  | 158 to 160 °C |  |  | 0% | O=C(O)c1ccc(CN(C2CCCCC2Cl)S(=O)(=O)c2ccc(Cl)cc2)cc1 (stereo not shown) [Example 81, 4-((4-Chloro-N-(2-chlorocyclohexyl)phenylsulfonamido)methyl)benzoic acid]
